According to publication PMC10893357 (Viruses, 2024):
“Also recorded” adds a separate entry of the source.

Target: T1, SARS-CoV-2 3CL^pro (Severe acute respiratory syndrome coronavirus 2, UniProt P0DTD1)
Test: SARS-CoV-2 3CLpro enzymatic inhibition assay (FRET peptide substrate)
Format: biochemical
Conditions: not given

Question: Which IC50 does the source give for `CC(=O)C1=C(O)C=C2Oc3c(-c4csc(N/N=C/c5ccc(C)s5)n4)c(O)c(C)c(O)c3[C@]2(C)C1=O` [(−)-3d] here?
Answer: The IC50 was 41 ± 5.89 µM.

Question: What about the “activity against 3CLpro (in words)” value of the same compound?
Answer: Its value is “moderately inhibited the protease”.

Question: Which IC50 does the source give for `CC(=O)C1=C(O)C=C2Oc3c(-c4csc(N/N=C/c5cc(Br)cs5)n4)c(O)c(C)c(O)c3[C@]2(C)C1=O` [(−)-3f] here?
Answer: Its IC50 is 72.8 ± 9.55 µM.

Question: `CC(=O)C1=C(O)C=C2Oc3c(-c4csc(N/N=C/c5ccsc5)n4)c(O)c(C)c(O)c3[C@@]2(C)C1=O` [(+)-3a] was tested. Which IC50 did it give?
Answer: Its IC50 is 51 ± 6.33 µM.

Question: `CC(=O)C1=C(O)C=C2Oc3c(-c4csc(N/N=C/c5cccs5)n4)c(O)c(C)c(O)c3[C@]2(C)C1=O` [(−)-3b] was tested. Which IC50 did it give?
Answer: The IC50 was 40.4 ± 5.65 µM.

Question: Which IC50 does the source give for `CC(=O)C1=C(O)C=C2Oc3c(-c4csc(N/N=C/c5cccs5)n4)c(O)c(C)c(O)c3[C@@]2(C)C1=O` [(+)-3b] here?
Answer: The IC50 was 49.7 ± 6.12 µM.

Question: For `CC(=O)C1=C(O)C=C2Oc3c(-c4csc(N/N=C/c5sccc5C)n4)c(O)c(C)c(O)c3[C@]2(C)C1=O` [(−)-3c], which IC50 is on record?
Answer: The IC50 was 48 ± 6.21 µM.

Question: How did the IC50 turn out when `CC(=O)C1=C(O)C=C2Oc3c(-c4csc(N/N=C/c5ccc([N+](=O)[O-])s5)n4)c(O)c(C)c(O)c3[C@]2(C)C1=O` [(−)-3g] was run?
Answer: Its IC50 is over 200 µM.

Question: What about the “activity against 3CLpro (in words)” value of the same compound?
Answer: Its value is “showed no activity at all”.

Question: For `CC(=O)C1=C(O)C=C2Oc3c(-c4csc(N/N=C/c5sccc5C)n4)c(O)c(C)c(O)c3[C@@]2(C)C1=O` [(+)-3c], which IC50 is on record?
Answer: The IC50 was 34 ± 4.45 µM.

Question: Which IC50 does the source give for `CC(=O)C1=C(O)C=C2Oc3c(C(C)=O)c(O)c(C)c(O)c3[C@@]2(C)C1=O` [(+)-1, (R)-(+)-Usnic acid, reference compound] here?
Answer: The IC50 was over 200 µM.

Question: And the “activity against 3CLpro (in words)” value?
Answer: The value was “does not inhibit 3CL^pro”.

Question: Which results are given for `CC(=O)C1=C(O)C=C2Oc3c(-c4csc(N/N=C/c5ccc(Br)s5)n4)c(O)c(C)c(O)c3[C@]2(C)C1=O` [(−)-3e]?
Answer: IC50: 85.8 ± 10.1 µM; activity against 3CLpro (in words): almost three times less effectively

Question: `CC(=O)C1=C(O)C=C2Oc3c(-c4csc(N/N=C/c5ccsc5)n4)c(O)c(C)c(O)c3[C@]2(C)C1=O` [(−)-3a] was tested. Which IC50 did it give?
Answer: The IC50 was 41.6 ± 4.97 µM.

Question: `CC(=O)C1=C(O)C=C2Oc3c(-c4csc(N/N=C/c5ccc(Br)s5)n4)c(O)c(C)c(O)c3[C@@]2(C)C1=O` [(+)-3e] was tested. Which IC50 did it give?
Answer: The IC50 was 28.2 ± 1.41 µM.

Question: And the “activity against 3CLpro (in words)” value?
Answer: Its value is “the highest but not strong activity”.

Question: With `CC(=O)C1=C(O)C=C2Oc3c(-c4csc(N/N=C/c5cc(Br)cs5)n4)c(O)c(C)c(O)c3[C@@]2(C)C1=O` [(+)-3f] as the compound, how does the IC50 read?
Answer: Its IC50 is 50.2 ± 6.75 µM.

Question: Which IC50 does the source give for `CC(=O)C1=C(O)C=C2Oc3c(-c4csc(N/N=C/c5ccc(C)s5)n4)c(O)c(C)c(O)c3[C@@]2(C)C1=O` [(+)-3d] here?
Answer: The IC50 was 40.7 ± 5.11 µM.

Question: What about the “activity against 3CLpro (in words)” value of the same compound?
Answer: Its value is “moderately inhibited the protease”.

Question: `CC(=O)C1=C(O)C=C2Oc3c(C(C)=O)c(O)c(C)c(O)c3[C@]2(C)C1=O` [(−)-1, (S)-(−)-Usnic acid, reference compound] was tested. Which IC50 did it give?
Answer: Its IC50 is over 200 µM.

Question: How did the IC50 turn out when `CC(=O)C1=C(O)C=C2Oc3c(-c4csc(N/N=C/c5ccc([N+](=O)[O-])s5)n4)c(O)c(C)c(O)c3[C@@]2(C)C1=O` [(+)-3g] was run?
Answer: The IC50 was over 200 µM.

Question: What about the “activity against 3CLpro (in words)” value of the same compound?
Answer: Its value is “showed no activity at all; also recorded: did not show this activity”.

Target: T1, SARS-CoV-2 3CL^pro
Test: Kinetic parameters of 3CLpro reaction with inhibitor
Format: biochemical
Conditions: maximum reaction rate of 3CLpro with inhibitor at its IC50

Question: How did the Vmax turn out when `CC(=O)C1=C(O)C=C2Oc3c(-c4csc(N/N=C/c5ccc(Br)s5)n4)c(O)c(C)c(O)c3[C@@]2(C)C1=O` [(+)-3e] was run?
Answer: The Vmax was 334.26 ± 39.08 nM/s.
